Source: US11033527B2, “Non-hormonal treatment of the genitourinary syndrome of menopause” (IMMUGEN PHARMA LLC, priority 2018, dated 2021)
“And” between values parts separate entries of the source, which are not always exact repeats. Equal values may be shown once.

What was measured:
vaginal tissue construct = assay: microarray analysis of differential gene expression (Affymetrix Human Gene 1.0 ST arrays), tissues treated for seven days via culture medium; assay type: cell-based
Text: The data from the Affymetrix Human Gene 1.0 ST arrays were normalized using the Robust Multiarray Average (RMA) algorithm and a Chip Definition File (CDF) that maps the probes on the array to unique Entrez Gene identifiers. The result is a matrix in which each column corresponds to a sample. The expression values are log 2-transformed by default.
By using a fold change >1.5, an analysis of differentially expressed genes was done to identify those genes which were involved in the cornified envelope, keratinocyte differentiation, cell differentiation, epidermis development, epithelial cell differentiation, junctional proteins and signaling, immune response and innate immune response.

[1] = biological target: endocannabinoid receptor type 2 (CB2) (Homo sapiens, UniProt P34972); settings: cited from earlier work
Sequence of endocannabinoid receptor type 2 (CB2) (P34972 whole entry, species assumed): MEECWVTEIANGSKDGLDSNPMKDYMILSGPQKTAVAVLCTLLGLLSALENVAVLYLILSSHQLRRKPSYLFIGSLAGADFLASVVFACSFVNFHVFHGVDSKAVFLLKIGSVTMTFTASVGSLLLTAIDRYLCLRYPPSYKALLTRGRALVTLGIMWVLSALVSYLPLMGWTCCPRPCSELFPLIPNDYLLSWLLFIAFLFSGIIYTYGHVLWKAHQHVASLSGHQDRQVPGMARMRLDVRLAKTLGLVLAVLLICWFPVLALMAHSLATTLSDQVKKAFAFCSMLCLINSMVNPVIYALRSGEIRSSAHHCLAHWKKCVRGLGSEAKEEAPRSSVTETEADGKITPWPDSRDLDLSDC

[2] = down-regulated by this fold, given without sign

## CCCC(C)(C)c1ccc2c(c1)OC(C)(C)[C@@H]1CC=C(C)C[C@@H]21 [JWH-133]
Vaginal tissue construct
  SPRR2D Fold Change: 2.839 fold
  WFDC12 Fold Change: 5.534 fold
Vaginal tissue construct; [2]
  CFB down-regulation: 2.167 fold
  CFH down-regulation: 1.681 fold
Vaginal tissue construct; gene Anterior gradient homolog 2 (Xenopus laevis)
  AGR2 Fold Change: −2.5 fold
Vaginal tissue construct; gene C-X-C motif chemokine ligand 8
  CXCL8 Expr Fold Change: −2.155 fold
Vaginal tissue construct; gene C-X-C motif chemokine ligand 17
  CXCL17 Expr Fold Change: −1.881 fold
Vaginal tissue construct; gene C-X-C motif chemokine receptor 2
  CXCR2 Expr Fold Change: 2.121 fold
Vaginal tissue construct; gene CD14 molecule
  CD14 Expr Fold Change: −2.286 fold
Vaginal tissue construct; gene CD74 molecule
  CD74 Expr Fold Change: −1.676 fold
Vaginal tissue construct; gene CD151 molecule (Raph blood group)
  CD151 Expr Fold Change: −1.653 fold
Vaginal tissue construct; gene CD244 molecule
  CD244 Expr Fold Change: 2.489 fold
Vaginal tissue construct; gene Corneodesmosin
  CDSN Fold Change: 6.888 fold
Vaginal tissue construct; gene C−C motif chemokine ligand 28
  CCL28 Expr Fold Change: −2.39 fold
Vaginal tissue construct; gene FYN binding protein 1
  FYB1 Expr Fold Change: −2.398 fold
Vaginal tissue construct; gene Interferon Epsilon
  IFNE Fold Change: 4.439 fold
Vaginal tissue construct; gene Interleukin 19
  IL19 Fold Change: −2.2 fold
Vaginal tissue construct; gene NLR family pyrin domain containing 10
  NLRP10 Fold Change: 10.11 fold
Vaginal tissue construct; gene RNAse family
  RNAse7 Fold Change: 6.145 fold
Vaginal tissue construct; gene T cell lymphoma invasion and metastasis 1
  TIAM1 Expr Fold Change: 2.018 fold
Vaginal tissue construct; gene TNF alpha induced protein 8
  TNFAIP8 Expr Fold Change: −1.724 fold
Vaginal tissue construct; gene TNF receptor superfamily member 10c
  TNFRSF10C Expr Fold Change: −2.114 fold
Vaginal tissue construct; gene TNF receptor superfamily member 11b
  TNFRSF11B Expr Fold Change: −2.006 fold
Vaginal tissue construct; gene Tetraspanin 1
  TSPAN1 Fold Change: −1.9 fold
Vaginal tissue construct; gene Transglutaminase 1
  TGM1 Fold Change: 1.809 fold
Vaginal tissue construct; gene Transglutaminase 3
  TGM3 Fold Change: 23.784 fold and 24 fold
Vaginal tissue construct; gene Transglutaminase 5
  TGM5 Fold Change: 2.346 fold
Vaginal tissue construct; gene Tripartite motif-containing 31
  TRIM31 Fold Change: −4.5 fold
Vaginal tissue construct; gene V-set domain containing T cell activation inhibitor 1
  VTCN1 Expr Fold Change: −2.694 fold
Vaginal tissue construct; gene WAP four-disulfide core domain 2
  WFDC2 Fold Change: −2.6 fold
Vaginal tissue construct; gene WAP four-disulfide core domain 5
  WFDC5 Fold Change: 2.807 fold
Vaginal tissue construct; gene arachidonate 12-lipoxygenase, 12R type
  ALOX12B Fold Change: 6.023 fold
Vaginal tissue construct; gene arachidonate 12-lipoygenase
  ALOX12 Fold Change: 1.8 fold
Vaginal tissue construct; gene arachidonate lipoxygenase 3
  ALOXE3 Fold Change: 2.881 fold
Vaginal tissue construct; gene arginosuccinate synthetase 1
  ASS1 Fold Change: −2.4 fold
Vaginal tissue construct; gene claudin 17
  CLDN17 Fold Change: 8.7 fold
Vaginal tissue construct; gene coiled-coil domain containing 59
  CCDC59 Expr Fold Change: −1.956 fold
Vaginal tissue construct; gene colony stimulating factor 2 receptor beta common subunit
  CSF2RB Expr Fold Change: 2.595 fold
Vaginal tissue construct; gene complement factor H
  CFH Expr Fold Change: −1.681 fold
Vaginal tissue construct; gene cornifelin
  CNFN Fold Change: 1.706 fold
Vaginal tissue construct; gene cysteine-rich C-terminal 1
  CRCT1 Fold Change: 2.3 fold
Vaginal tissue construct; gene dermokine
  DMKN Fold Change: 2.043 fold
Vaginal tissue construct; gene descmocollin 3
  DCS3 Fold Change: 1.5 fold
Vaginal tissue construct; gene desmocollin 1
  DSC1 Fold Change: 6.69 fold
Vaginal tissue construct; gene desmocollin 2
  DSC2 Fold Change: 1.6 fold
Vaginal tissue construct; gene desmoglein 1
  DSG1 Fold Change: 7.572 fold and 7.2 fold
Vaginal tissue construct; gene filaggrin
  FLG Fold Change: 3.151 fold
Vaginal tissue construct; gene filaggrin family member 2
  FLG2 Fold Change: 6.801 fold
Vaginal tissue construct; gene glycogen synthase 2 (liver)
  GYS2 Fold Change: 3.1 fold
Vaginal tissue construct; gene human keratinocyte proline rich protein
  KPRP Fold Change: 17.392 fold and 20.8 fold
Vaginal tissue construct; gene interferon induced protein with tetratricopeptide repeats 5
  IFIT5 Expr Fold Change: −1.97 fold
Vaginal tissue construct; gene interferon induced with helicase C domain 1
  IFIH1 Expr Fold Change: −2.099 fold
Vaginal tissue construct; gene interferon regulatory factor 1
  IRF1 Expr Fold Change: −3.083 fold
Vaginal tissue construct; gene interferon regulatory factor 9
  IRF9 Expr Fold Change: −1.62 fold
Vaginal tissue construct; gene interleukin 1 receptor like 2
  IL1RL2 Expr Fold Change: 2.54 fold
Vaginal tissue construct; gene interleukin 7 receptor
  IL7R Expr Fold Change: −2.062 fold
Vaginal tissue construct; gene interleukin 18 binding protein
  IL18BP Expr Fold Change: 1.523 fold
Vaginal tissue construct; gene interleukin 23 subunit alpha
  IL23A Expr Fold Change: 2.346 fold
Vaginal tissue construct; gene interleukin 33
  IL33 Expr Fold Change: −3.314 fold
Vaginal tissue construct; gene interleukin 36 alpha
  IL36A Expr Fold Change: 4.253 fold
Vaginal tissue construct; gene interleukin 36 receptor antagonist
  IL36RN Expr Fold Change: 4.029 fold
Vaginal tissue construct; gene kallikrein related peptidase 6
  KLK6 Fold Change: 4.063 fold
Vaginal tissue construct; gene kallikrein related peptidase 8
  KLK8 Fold Change: 1.504 fold
Vaginal tissue construct; gene kallikrein related peptidase 10
  KLK10 Fold Change: 2.214 fold
Vaginal tissue construct; gene kallikrein related peptidase 12
  KLK12 Fold Change: 3.882 fold
Vaginal tissue construct; gene kallikrein related peptidase 13
  KLK13 Fold Change: 3.278 fold
Vaginal tissue construct; gene keratin 1
  KRT1 Fold Change: 7.122 fold and 8.7 fold
Vaginal tissue construct; gene keratin 2
  KRT2 Fold Change: 1.764 fold
Vaginal tissue construct; gene keratin 20
  KRT20 Fold Change: −2.992 fold
Vaginal tissue construct; gene keratin 23
  KRT23 Fold Change: 1.631 fold
Vaginal tissue construct; gene keratin 24
  KRT24 Fold Change: 1.699 fold
Vaginal tissue construct; gene keratinocyte differentiation associated protein
  KRTDAP Fold Change: 9.891 fold and 10.1 fold
Vaginal tissue construct; gene late cornified envelope 1A
  LCE1A Fold Change: 1.526 fold
Vaginal tissue construct; gene late cornified envelope 1C
  LCE1C Fold Change: 2.292 fold
Vaginal tissue construct; gene late cornified envelope 1F
  LCE1F Fold Change: 1.576 fold
Vaginal tissue construct; gene late cornified envelope 2A
  LCE2A Fold Change: 4.097 fold
Vaginal tissue construct; gene late cornified envelope 2B
  LCE2B Fold Change: 7.398 fold
Vaginal tissue construct; gene late cornified envelope 2D
  LCE2C/LCE2D Fold Change: 10.393 fold
Vaginal tissue construct; gene late cornified envelope 3D
  LCE3D Fold Change: 12.6 fold
Vaginal tissue construct; gene late cornified envelope 3E
  LCE3E Fold Change: 13.5 fold
Vaginal tissue construct; gene late cornified envelope 5A
  LCE5A Fold Change: 1.571 fold
Vaginal tissue construct; gene lipase family member M
  LIPM Fold Change: 6.813 fold
Vaginal tissue construct; gene lipase family member N
  LIPN Fold Change: 4.766 fold
Vaginal tissue construct; gene lipin 1
  LIPN1 Fold Change: 3.23 fold
Vaginal tissue construct; gene loricrin
  LOR Fold Change: 5.085 fold
Vaginal tissue construct; gene lymphocyte antigen 6 family member G6C
  LY6G6C Expr Fold Change: 5.531 fold
Vaginal tissue construct; gene major histocompatibility complex, class C
  HLA-C Expr Fold Change: −1.5 fold
Vaginal tissue construct; gene major histocompatibility complex, class I, B
  HLA-B Expr Fold Change: −1.677 fold
Vaginal tissue construct; gene major histocompatibility complex, class II, DR alpha
  HLA-DRA Expr Fold Change: −1.875 fold
Vaginal tissue construct; gene major histocompatibility complex, class II, DR beta 6 (pseudogene)
  HLA-DRB6 Expr Fold Change: −1.5 fold
Vaginal tissue construct; gene malic enzyme 1, NADP(+)-dependent cytosolic
  ME1 Fold Change: 2.4 fold
Vaginal tissue construct; gene mucin like 1
  MUCL1 Fold Change: 1.4 fold
Vaginal tissue construct; gene natural killer cell cytotoxicity receptor 3 ligand 1
  NCR3LG1 Expr Fold Change: 2.076 fold
Vaginal tissue construct; gene nuclear factor of activated T cells 5
  NFAT5 Expr Fold Change: 1.924 fold
Vaginal tissue construct; gene olfactomedin 4
  OLFM4 Expr Fold Change: −3.505 fold
Vaginal tissue construct; gene pancreatic lipase-related protein 3
  PNLIPRP3 Fold Change: 1.4 fold
Vaginal tissue construct; gene phospholipase A2 group IIF
  PLA2G2F Fold Change: 1.564 fold
Vaginal tissue construct; gene phospholipase A2 group III
  PLA2G3 Fold Change: 1.953 fold
Vaginal tissue construct; gene phospholipase A2 group IVD
  PLA2G4D Fold Change: 3.604 fold
Vaginal tissue construct; gene phospholipase A2 group IVE
  PLA2G4E Fold Change: 2.225 fold
Vaginal tissue construct; gene phospholipase A2 group X
  PLA2G10 Fold Change: −2.819 fold
Vaginal tissue construct; gene placenta-specific 8
  PLAC8 Fold Change: −2.2 fold
Vaginal tissue construct; gene polymeric immunoglobulin receptor
  PIGR Fold Change: −1.8 fold
Vaginal tissue construct; gene programmed cell death 1 ligand 2
  PDCD1LG2 Expr Fold Change: −1.879 fold
Vaginal tissue construct; gene ribosomal protein S15a
  RPS15A Expr Fold Change: −1.999 fold
Vaginal tissue construct; gene serpin family B member 12
  SERPINB12 Fold Change: 4.409 fold and 4.3 fold
Vaginal tissue construct; gene signal transducer and activator of transcription 4
  STAT4 Expr Fold Change: −2.315 fold
Vaginal tissue construct; gene small proline rich protein 2G
  SPRR2G Fold Change: 7.539 fold
Vaginal tissue construct; gene small proline rich protein 4
  SPRR4 Fold Change: 2.263 fold
Vaginal tissue construct; gene suprabasin
  SBSN Fold Change: 3.488 fold and 3.4 fold
Vaginal tissue construct; gene toll like receptor 3
  TLR3 Expr Fold Change: −2.566 fold
Vaginal tissue construct; gene transient receptor potential cation channel subfamily V member 3
  TRPV3 Fold Change: 2.32 fold and 2.382 fold
Vaginal tissue construct; gene ubiquitin like modifier activating enzyme 7
  UBA7 Expr Fold Change: −1.651 fold
Vaginal tissue construct; gene vascular endothelial growth factor A
  VEGFA Fold Change: 1.2 fold
Vaginal tissue construct; microRNA 23a
  mir-23 Expr Fold Change: 2.983 fold
Vaginal tissue construct; microRNA 224
  mir-224 Expr Fold Change: 4.867 fold
[1]
  agonist type by receptor internalization: full agonist
